The source made the active and inactive calls.
Columns and labels:
Tumor necrosis factor = Tumor necrosis factor (Homo sapiens, UniProt P01375); assay: analog potency on TNFa NF-kB signaling – cell-based, revised, SAR follow-up (AID 2337); type: functional
Streptococcus = assay: GAS UMAA2166 growth inhibition – luminescence, BacTiterGlo, counter-screen for streptokinase expression inhibitor project, dose response (AID 1915); type: functional, organism-based;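 further: potency for reduction of bacterial viability or growth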
HEK293 [1] = assay: cells; type: functional, cell-based; details: Homo sapiens
[2] = molecular target: ATP-dependent molecular chaperone HSP82 (Candida albicans (strain WO-1) (Yeast), UniProt C4YTQ8); assay: steroid-induced GRE reporter decrease in yeast – S. cerevisiae, luminescence, Hsp90 inhibitor project, dose response (AID 2400); type: functional, cell-based;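 further: beta-galactosidase luminescence from glucocorticoid response element reporter as proxy for Hsp90 function; inhibitor potency where signal loss means Hsp90 inhibition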
ATP-dependent molecular chaperone HSP82, sequence (C4YTQ8 whole entry): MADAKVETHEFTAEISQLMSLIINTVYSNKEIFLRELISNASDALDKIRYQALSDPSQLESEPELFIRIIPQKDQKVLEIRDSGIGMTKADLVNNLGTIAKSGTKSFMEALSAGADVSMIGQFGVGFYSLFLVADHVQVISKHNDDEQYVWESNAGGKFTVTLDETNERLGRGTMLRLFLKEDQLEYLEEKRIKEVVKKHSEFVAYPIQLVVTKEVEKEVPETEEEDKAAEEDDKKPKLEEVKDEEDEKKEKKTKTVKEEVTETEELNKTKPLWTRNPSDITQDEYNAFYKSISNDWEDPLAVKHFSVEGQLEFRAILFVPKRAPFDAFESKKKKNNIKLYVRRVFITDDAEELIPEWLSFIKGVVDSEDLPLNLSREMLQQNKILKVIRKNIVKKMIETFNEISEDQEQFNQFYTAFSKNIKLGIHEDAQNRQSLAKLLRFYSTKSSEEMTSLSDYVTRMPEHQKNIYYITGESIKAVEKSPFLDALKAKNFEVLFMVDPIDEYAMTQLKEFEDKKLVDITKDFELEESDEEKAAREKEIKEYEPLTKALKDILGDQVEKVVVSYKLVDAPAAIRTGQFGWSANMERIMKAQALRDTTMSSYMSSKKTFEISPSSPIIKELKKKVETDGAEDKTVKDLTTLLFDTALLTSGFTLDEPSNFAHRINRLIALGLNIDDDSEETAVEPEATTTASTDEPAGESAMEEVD

[3] = molecular target: T1, Corticotropin-releasing factor receptor 2/Corticotropin-releasing factor-binding protein (Homo sapiens, UniProt P24387+Q13324); assay: activators of CRF receptor 2 with binding protein – uHTS hits, confirmation (AID 602473); type: functional; details: read-out: EC50_Mean
T1 sequence (Q13324 whole entry): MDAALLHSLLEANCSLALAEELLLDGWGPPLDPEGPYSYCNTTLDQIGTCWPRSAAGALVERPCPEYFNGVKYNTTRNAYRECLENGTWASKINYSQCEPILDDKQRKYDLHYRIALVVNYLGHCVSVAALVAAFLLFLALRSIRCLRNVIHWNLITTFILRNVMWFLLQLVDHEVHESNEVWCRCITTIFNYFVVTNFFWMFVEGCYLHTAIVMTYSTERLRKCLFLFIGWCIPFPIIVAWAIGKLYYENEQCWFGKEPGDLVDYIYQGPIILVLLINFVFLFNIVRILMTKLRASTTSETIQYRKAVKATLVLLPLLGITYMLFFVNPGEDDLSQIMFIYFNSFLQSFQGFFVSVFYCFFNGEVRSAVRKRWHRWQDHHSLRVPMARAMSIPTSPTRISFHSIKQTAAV
T1 sequence (P24387 whole entry): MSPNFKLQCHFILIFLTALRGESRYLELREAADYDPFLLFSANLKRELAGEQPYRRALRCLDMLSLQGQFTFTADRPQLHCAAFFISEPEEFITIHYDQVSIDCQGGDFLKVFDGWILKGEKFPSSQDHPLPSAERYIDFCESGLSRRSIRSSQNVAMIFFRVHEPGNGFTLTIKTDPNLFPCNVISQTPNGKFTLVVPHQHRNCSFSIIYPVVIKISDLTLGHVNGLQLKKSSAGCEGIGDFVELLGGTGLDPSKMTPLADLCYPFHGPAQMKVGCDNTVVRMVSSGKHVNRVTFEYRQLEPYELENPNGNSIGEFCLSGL

HEK293 [4] = assay: inhibition of NOD1-driven NF-kB reporter – cell-based, luminescence, uHTS, primary screen (AID 1578); type: functional; details: Homo sapiens
HEK293 [5] = assay: cells; details: Homo sapiens
[6] = molecular target: Nucleotide-binding oligomerization domain-containing protein 2 (Homo sapiens, UniProt Q9HC29); assay: PubChem AID 2334; type: functional
Nucleotide-binding oligomerization domain-containing protein 2, sequence (Q9HC29 whole entry, the tested form may be a part): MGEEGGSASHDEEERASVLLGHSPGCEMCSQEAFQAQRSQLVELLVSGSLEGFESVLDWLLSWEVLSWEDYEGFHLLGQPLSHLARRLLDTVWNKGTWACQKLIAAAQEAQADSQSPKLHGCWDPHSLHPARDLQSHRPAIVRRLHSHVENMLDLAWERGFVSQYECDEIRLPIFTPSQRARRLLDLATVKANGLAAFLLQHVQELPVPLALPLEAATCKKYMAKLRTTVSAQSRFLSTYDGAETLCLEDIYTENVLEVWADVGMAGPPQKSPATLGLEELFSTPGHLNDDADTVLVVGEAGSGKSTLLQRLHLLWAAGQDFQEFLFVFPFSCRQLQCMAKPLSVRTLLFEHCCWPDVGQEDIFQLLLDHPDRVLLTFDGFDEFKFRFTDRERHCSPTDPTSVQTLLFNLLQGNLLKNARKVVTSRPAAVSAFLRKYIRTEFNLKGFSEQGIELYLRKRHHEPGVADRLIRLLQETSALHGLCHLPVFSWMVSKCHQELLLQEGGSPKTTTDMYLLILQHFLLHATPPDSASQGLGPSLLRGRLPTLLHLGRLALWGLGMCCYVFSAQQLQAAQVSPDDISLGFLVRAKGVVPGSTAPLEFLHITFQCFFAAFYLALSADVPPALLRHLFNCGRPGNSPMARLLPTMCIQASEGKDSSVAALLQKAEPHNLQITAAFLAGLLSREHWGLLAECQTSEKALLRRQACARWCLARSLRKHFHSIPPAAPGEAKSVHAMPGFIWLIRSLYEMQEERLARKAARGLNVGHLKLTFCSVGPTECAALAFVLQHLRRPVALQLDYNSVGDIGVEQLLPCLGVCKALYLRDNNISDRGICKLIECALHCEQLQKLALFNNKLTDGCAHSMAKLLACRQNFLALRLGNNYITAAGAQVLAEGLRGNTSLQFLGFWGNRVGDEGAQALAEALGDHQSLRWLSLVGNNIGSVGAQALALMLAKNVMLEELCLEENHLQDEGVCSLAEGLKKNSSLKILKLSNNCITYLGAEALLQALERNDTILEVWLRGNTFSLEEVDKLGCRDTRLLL

[7] = system: Streptococcus sp. 'group A'; assay: Streptococcus pyogenes SK(-)GAS viability under kanamycin – luminescence, BacTiterGlo, confirmation, counter-screen for streptokinase expression inhibitor project, dose response (AID 1900); type: functional, organism-based
[8] = molecular target: T1, Corticotropin-releasing factor receptor 2/Corticotropin-releasing factor-binding protein; assay: Dose Response confirmation of uHTS hits for small molecule antagonists of the CRF-binding protein and CRF-R2 receptor complex.; type: functional; details: read-out: IC50_Mean
Streptokinase A = molecular target: T2, Streptokinase A (Streptococcus pyogenes serotype M1, UniProt P10520); assay: viability-normalized secreted streptokinase activity reduction – plasminogen activation absorbance, OD405, dose response (AID 1914); type: functional, Streptococcus pyogenes M1 GAS;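 further: secreted streptokinase activity via plasminogen activation per viability signal from cell pellet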
T2 sequence (P10520 whole entry): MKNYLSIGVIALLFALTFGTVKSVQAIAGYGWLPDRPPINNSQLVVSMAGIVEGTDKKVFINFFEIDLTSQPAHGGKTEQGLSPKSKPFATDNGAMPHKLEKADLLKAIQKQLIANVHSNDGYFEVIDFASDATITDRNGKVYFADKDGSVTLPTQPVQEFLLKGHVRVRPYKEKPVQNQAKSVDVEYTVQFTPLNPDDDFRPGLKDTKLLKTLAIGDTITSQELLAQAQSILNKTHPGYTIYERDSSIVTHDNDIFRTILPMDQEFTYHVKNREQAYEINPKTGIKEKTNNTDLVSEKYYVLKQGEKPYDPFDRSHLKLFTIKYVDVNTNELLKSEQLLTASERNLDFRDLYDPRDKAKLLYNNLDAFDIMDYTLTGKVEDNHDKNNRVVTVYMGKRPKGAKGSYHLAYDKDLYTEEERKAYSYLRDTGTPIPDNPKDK

HEK293 [9] = assay: NOD2 signaling inhibitors in MDP-stimulated cells, cell-based, uHTS, luminescence (AID 2001); type: functional; details: Homo sapiens
[10] = NIH-3T3 fibroblast cytotoxicity, dose response, cytotoxicity control, cell-based, fluorescence, Alamar Blue, secondary assay (AID 2327); type: functional;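 further: NIH-3T3 mouse fibroblasts cultured with fluconazole at 8 µg/mL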
[11] = fluconazole-exposed Candida albicans growth modulators – fluorescence, retest, confirmation (AID 2467); type: functional, cell-based
[12] = molecular target: T3, Carboxy-terminal domain RNA polymerase II polypeptide A small phosphatase 1 (Homo sapiens, UniProt Q9GZU7); assay: CTDSP1 inhibitors, concentration-response, biochemical, absorbance readout, ultra-high-throughput screen actives (AID 540297); type: functional
T3 sequence (Q9GZU7 whole entry): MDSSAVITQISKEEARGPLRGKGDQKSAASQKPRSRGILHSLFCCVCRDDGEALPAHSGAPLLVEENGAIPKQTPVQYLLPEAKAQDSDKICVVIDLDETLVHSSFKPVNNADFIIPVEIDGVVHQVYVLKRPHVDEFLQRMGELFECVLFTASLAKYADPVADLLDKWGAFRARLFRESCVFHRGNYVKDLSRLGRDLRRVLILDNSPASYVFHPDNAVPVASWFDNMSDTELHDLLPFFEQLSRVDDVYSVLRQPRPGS

HEK293 [13] = assay: cells; type: functional, cell-based; details: Homo sapiens; remark: listed apart in the source
[14] = blockers of CRF-binding protein–CRF-R2 complex – cell-based, uHTS hits, 384-well, dose response (AID 651639); type: functional, Homo sapiens; details: read-out: IC50_Mean
[15] = molecular target: Nucleotide-binding oligomerization domain-containing protein 1 (Homo sapiens, UniProt Q9Y239); assay: blockers of NOD1 pathway activity – revised, SAR follow-up (AID 2333); type: functional
Nucleotide-binding oligomerization domain-containing protein 1, sequence (Q9Y239 whole entry, the tested form may be a part): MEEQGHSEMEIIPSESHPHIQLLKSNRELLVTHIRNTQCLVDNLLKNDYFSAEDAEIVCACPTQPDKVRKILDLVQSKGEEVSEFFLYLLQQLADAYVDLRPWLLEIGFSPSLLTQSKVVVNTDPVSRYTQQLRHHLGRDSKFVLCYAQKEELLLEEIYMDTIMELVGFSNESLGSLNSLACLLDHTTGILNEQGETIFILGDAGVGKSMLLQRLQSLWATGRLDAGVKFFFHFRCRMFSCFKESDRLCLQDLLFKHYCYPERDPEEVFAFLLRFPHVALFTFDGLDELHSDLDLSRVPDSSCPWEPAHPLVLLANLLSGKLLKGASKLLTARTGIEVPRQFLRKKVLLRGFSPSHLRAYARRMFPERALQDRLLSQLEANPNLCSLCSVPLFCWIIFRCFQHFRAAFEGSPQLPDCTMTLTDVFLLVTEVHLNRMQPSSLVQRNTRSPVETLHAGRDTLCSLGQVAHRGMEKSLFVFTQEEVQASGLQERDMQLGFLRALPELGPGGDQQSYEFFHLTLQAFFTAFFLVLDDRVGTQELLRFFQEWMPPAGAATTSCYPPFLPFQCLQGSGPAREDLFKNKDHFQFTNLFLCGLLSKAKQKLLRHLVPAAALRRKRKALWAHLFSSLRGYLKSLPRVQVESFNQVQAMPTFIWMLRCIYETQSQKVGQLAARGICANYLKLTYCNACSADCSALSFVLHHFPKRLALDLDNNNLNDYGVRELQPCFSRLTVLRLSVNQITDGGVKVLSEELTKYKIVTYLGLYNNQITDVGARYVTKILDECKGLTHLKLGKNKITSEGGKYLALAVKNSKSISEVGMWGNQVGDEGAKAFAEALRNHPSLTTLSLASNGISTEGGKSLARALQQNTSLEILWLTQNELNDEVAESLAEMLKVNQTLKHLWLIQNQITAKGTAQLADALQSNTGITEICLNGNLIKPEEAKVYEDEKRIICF

[16] = molecular target: Serine/threonine-protein phosphatase (Candida dubliniensis (strain CD36 / CBS 7987 / NCPF 3949 / NRRLY-17841) (Yeast), UniProt B9W6M3); assay: blockers of CaCl2-induced CDRE-lacZ signaling – S. cerevisiae, luminescence, secondary, dose response (AID 2388); type: functional, cell-based;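 further: yeast reporter cells carrying a calcineurin-responsive lacZ construct stimulated with calcium chloride; luminescent beta-galactosidase reporter signal in whole cells rather than isolated phosphatase activity; potency for inhibition where a drop in reporter signal means calcineurin blockade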
Serine/threonine-protein phosphatase, sequence (B9W6M3 whole entry): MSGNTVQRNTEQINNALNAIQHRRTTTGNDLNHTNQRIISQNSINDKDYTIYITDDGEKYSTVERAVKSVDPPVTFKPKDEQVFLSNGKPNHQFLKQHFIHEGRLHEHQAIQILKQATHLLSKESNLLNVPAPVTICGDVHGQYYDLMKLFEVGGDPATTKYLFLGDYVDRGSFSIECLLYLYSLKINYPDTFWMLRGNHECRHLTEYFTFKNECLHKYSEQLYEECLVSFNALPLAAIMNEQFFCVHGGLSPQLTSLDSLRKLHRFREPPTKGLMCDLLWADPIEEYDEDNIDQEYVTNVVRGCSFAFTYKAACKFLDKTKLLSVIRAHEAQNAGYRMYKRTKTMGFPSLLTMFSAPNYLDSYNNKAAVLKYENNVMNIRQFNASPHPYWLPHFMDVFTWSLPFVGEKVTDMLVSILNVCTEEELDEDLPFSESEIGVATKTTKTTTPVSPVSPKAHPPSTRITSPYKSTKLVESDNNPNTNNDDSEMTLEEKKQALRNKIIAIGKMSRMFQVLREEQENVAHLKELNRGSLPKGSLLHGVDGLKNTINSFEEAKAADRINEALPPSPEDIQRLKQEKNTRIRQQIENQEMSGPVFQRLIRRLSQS

[17] = molecular target: Beta-2 adrenergic receptor (Homo sapiens, UniProt P07550); assay: ADRB2 activation measured by internalization – cell-based, FAP fluorogen, flow cytometry, cherry pick 1, dose response (AID 588763); type: functional
Beta-2 adrenergic receptor, sequence (P07550 whole entry): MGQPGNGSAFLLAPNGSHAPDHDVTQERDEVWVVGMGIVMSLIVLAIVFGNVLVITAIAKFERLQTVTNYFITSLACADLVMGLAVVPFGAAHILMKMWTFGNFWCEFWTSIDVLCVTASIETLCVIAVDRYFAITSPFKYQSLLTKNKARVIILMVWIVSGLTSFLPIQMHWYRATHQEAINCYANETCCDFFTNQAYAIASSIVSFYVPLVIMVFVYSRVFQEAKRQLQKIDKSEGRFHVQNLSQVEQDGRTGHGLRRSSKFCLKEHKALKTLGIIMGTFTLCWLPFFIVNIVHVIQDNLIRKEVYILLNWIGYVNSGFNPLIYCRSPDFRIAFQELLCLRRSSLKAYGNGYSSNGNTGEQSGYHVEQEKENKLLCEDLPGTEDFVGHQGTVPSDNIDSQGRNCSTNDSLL

[18] = reduction of Shn3 3'UTR-driven luciferase in osteoblasts – cell-based, Clone20 osteoblasts, firefly luciferase, cherry-picked, dose response (AID 624132); type: functional;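 further: firefly luciferase luminescence from reporter carrying the Shn3 3'UTR in osteoblasts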
CHO = CHO cell viability loss, potency – luminescence, cytotoxicity control for TLR9-MyD88 binding inhibitor project, dose response (AID 588339); type: functional, cell-based, hamster; details: Cricetulus griseus;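 further: CHO cells stably coexpressing TLR9 and MyD88 fusions from primary screen; compound exposure lasted 48 hours before viability readout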
[19] = molecular target: T4, High affinity choline transporter 1 (Homo sapiens, UniProt Q9GZV3); assay: human choline transporter blockers, potency – cell-based, 5-point CRC, membrane potential dye, dose response (AID 504840); type: functional
T4 sequence (Q9GZV3 whole entry): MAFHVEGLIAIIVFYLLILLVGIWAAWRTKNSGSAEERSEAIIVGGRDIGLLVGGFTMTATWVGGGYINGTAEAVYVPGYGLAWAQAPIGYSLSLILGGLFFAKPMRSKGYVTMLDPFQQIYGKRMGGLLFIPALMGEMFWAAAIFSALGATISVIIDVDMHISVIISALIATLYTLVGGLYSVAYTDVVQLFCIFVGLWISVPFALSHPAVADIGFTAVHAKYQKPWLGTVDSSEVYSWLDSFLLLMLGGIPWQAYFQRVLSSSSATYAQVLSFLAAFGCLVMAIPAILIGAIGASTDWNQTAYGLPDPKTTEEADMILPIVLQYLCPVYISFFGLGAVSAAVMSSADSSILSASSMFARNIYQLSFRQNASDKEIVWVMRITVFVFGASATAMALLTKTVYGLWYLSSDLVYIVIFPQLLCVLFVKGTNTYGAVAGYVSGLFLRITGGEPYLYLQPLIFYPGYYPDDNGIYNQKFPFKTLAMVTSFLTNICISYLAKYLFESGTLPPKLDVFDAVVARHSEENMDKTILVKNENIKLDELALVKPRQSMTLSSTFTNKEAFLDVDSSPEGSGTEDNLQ

[20] = molecular target: DNA damage-inducible transcript 3 protein (Mus musculus, UniProt P35639); type: functional, Cricetulus griseus
DNA damage-inducible transcript 3 protein, sequence (P35639 whole entry): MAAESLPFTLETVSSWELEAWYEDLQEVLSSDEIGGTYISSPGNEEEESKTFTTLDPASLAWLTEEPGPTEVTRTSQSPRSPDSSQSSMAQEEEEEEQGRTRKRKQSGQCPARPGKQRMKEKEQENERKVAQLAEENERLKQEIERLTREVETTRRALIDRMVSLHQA

[21] = loss of viability in HepG2 cells – cell-based, CellTiter-Glo, cherry-picked, cytotoxicity control for Shn3 inhibitor project, dose response (AID 624134); type: functional
[22] = non-specific 3'UTR reporter inhibition in Clone20-Shn3RL – cell-based, Renilla luciferase, cherry-picked, counter-screen for Shn3 inhibitor project, dose response (AID 624133); type: functional
Beta Lactamase = Beta Lactamase (Pseudomonas aeruginosa, UniProt Q932Y6); assay: BLA reporter interference, concentration series – BLA reporter cells, FRET fluorescence, artefact control for TLR9-MyD88 binding inhibitor project, dose response (AID 588341); type: cell-based;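 further: cell based assay in CHO-K1 cells stably expressing beta-lactamase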
Beta Lactamase, sequence (Q932Y6 whole entry): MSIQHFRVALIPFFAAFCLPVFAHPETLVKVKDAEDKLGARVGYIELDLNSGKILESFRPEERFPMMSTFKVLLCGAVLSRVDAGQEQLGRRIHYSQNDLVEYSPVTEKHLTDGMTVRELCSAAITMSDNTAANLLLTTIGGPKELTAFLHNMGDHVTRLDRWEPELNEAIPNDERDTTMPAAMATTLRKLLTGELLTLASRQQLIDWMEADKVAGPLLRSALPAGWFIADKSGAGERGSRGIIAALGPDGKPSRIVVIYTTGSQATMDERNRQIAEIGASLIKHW

Tumor necrosis factor, sequence (P01375 whole entry): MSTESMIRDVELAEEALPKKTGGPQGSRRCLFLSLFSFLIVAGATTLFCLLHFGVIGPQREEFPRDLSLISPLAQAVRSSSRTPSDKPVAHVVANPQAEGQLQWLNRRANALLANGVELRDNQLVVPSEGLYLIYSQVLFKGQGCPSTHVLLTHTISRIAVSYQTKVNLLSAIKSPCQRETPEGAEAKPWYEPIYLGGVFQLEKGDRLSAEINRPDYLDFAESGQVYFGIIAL

With `O=[N+]([O-])c1ccc(O)c(Nc2ncnc3ccc(Br)cc23)c1` the IC50 (Tumor necrosis factor) was 6.28 µM (active), the EC50 (Streptococcus) was 46.2 µM (active) and the IC50 (HEK293 [1]) was > 20 µM (inactive). The EC50 [2] was > 160 µM (inactive), the EC50 [3] was 5.78 µM (active) and the EC50 (HEK293 [4]) was 2.64 µM (active). For the same compound, the IC50 (HEK293 [5]) was > 20 µM (inactive), the IC50 [6] was 3.53 µM (active) and the EC50 [7] was 6.15 µM (active). The IC50 [8] was 5.76 µM (active), the EC50 (Streptokinase A) was > 150 µM (not active) and the IC50 (HEK293 [9]) was 18.8 µM (inactive). The EC50 [10] was > 160 µM (inactive), the EC50 [11] was 0.429 µM (active) and the IC50 [12] was 5.46 µM (active). The IC50 (HEK293 [13]) was > 20 µM (inactive), the IC50 [14] was > 20 µM (inactive) and the IC50 [15] was 2.15 µM (active). The EC50 [16] was > 180 µM (inactive).
In the case of `COc1ccc(CN2CCC(Oc3ccc(C(=O)N4CCCCC4)cc3)CC2)cc1C`, the EC50 [17] is reported as 25.3 µM (inactive).
With `CCOC(=O)c1nc(S(C)(=O)=O)ncc1Cl` the AC50 [18] was 6.37 µM (active), the IC50 (CHO) was 5.62 µM (active) and the IC50 [19] was 19.1 µM (active). The “Absolute IC50 (CHOP)” value [20] was 10 µM, the AC50 [21] was 35.4 µM (active) and the AC50 [22] was 20.5 µM (active). The IC50 (Beta Lactamase) was 22.4 µM (inactive).
